Source: patent publication EP0229128B1, “DERIVATIVES OF GLYCERO-3(2)-PHOSPHO-L-SERINE AND PHARMACEUTICAL PREPARATIONS CONTAINING THEM” (CL PHARMA AKTIENGESELLSCHAFT, priority 1985, dated 1987)

System: Ehrlich-Ascites-Tumorzellen
Assay: Inhibition of proliferation of Ehrlich ascites tumour cells in vitro
Format: cell-based
Details: read-out: Hemmung der Proliferation (%) von Ehrlich-Ascites-Tumorzellen in vitro, % Hemmung; for inhibition at 1 µM: Konzentration 1 µM; for inhibition at 2 µM: Konzentration 2 µM; for inhibition at 5 µM: Konzentration 5 µM; for inhibition at 10 µM: Konzentration 10 µM; for inhibition at 20 µM: Konzentration 20 µM; for inhibition at 100 µM: Konzentration 100 µM
Source text: Die Verbindungen der allgemeinen Formel I und Salze davon sind biologisch hochaktiv und besitzen insbesondere eine ausgeprägte Antitumorwirksamkeit. Diese wertvollen pharmakologischen Eigenschaften können in vitro und in vivo unter Verwendung von Standardmethoden nachgewiesen werden, beispielsweise indem die Hemmung der Proliferation von Ehrlich-Ascites-Tumorzellen in vitro unter Einwirkung von Glycero-3(2)-phospho-L-serinderivaten der allgemeinen Formel I bestimmt wird. • In diesem Test (Tabelle I) bewirken die erfindungsgemäßen Verbindungen, beispielsweise • 1-0-Hexadecyl-2-chlor-2-desoxy-glycero-3-phospho-L-serin (Verbindung Nr. 1) • 1-0-Hexadecyl-2-fluor-2-desoxy-glycero-3-phospho-L-serin (Verbindung Nr. 2) • 1-Chlor-1-desoxy-3-0-hexadecyl-glycero-2-phospho-L-serin (Verbindung Nr. 3) • 1-0-(2,2,2-Trifluorethy)-2-0-hexadecyl-glycero-3-phospho-L-serin (Verbindung Nr. 4), schon in sehr geringen Konzentrationen eine signifikante Hemmung des Zellwachstums von Ehrlich-Ascites-Tumorzellen.

CCCCCCCCCCCCCCCCCCOCC(COP(=O)([O-])OCC[N+](C)(C)C)OC (stereo not shown) [V, 1-O-Octadecyl-2-O-methyl-glycero-3-phosphocholin, reference compound]
inhibition at 1 µM: 0%
inhibition at 2 µM: 0%
inhibition at 5 µM: 4%
inhibition at 10 µM: 23%
inhibition at 20 µM: 62%
inhibition at 100 µM: 100%

CCCCCCCCCCCCCCCCOCC(Cl)COP(=O)(O)OC[C@H](N)C(=O)O (stereo partly drawn) [Verbindung Nr. 1, 1-O-Hexadecyl-2-chlor-2-desoxy-glycero-3-phospho-L-serin]
inhibition at 1 µM: 16%
inhibition at 2 µM: 10%
inhibition at 5 µM: 30%
inhibition at 10 µM: 55%
inhibition at 20 µM: 80%
inhibition at 100 µM: 95%

CCCCCCCCCCCCCCCCOCC(F)COP(=O)(O)OC[C@H](N)C(=O)O (stereo partly drawn) [Verbindung Nr. 2, 1-O-Hexadecyl-2-fluor-2-desoxy-glycero-3-phospho-L-serin]
inhibition at 1 µM: 10%
inhibition at 2 µM: 13%
inhibition at 5 µM: 18%
inhibition at 10 µM: 51%
inhibition at 20 µM: 82%
inhibition at 100 µM: 95%

CCCCCCCCCCCCCCCCOCC(CCl)OP(=O)(O)OC[C@H](N)C(=O)O (stereo partly drawn) [Verbindung Nr. 3, 1-Chlor-1-desoxy-3-O-hexadecyl-glycero-2-phospho-L-serin]
inhibition at 1 µM: 15%
inhibition at 2 µM: 17%
inhibition at 5 µM: 38%
inhibition at 10 µM: 68%
inhibition at 20 µM: 81%
inhibition at 100 µM: 93%

CCCCCCCCCCCCCCCCOC(COCC(F)(F)F)COP(=O)(O)OC[C@H](N)C(=O)O (stereo partly drawn) [Verbindung Nr. 4, 1-O-(2,2,2-Trifluorethyl)-2-O-hexadecyl-glycero-3-phospho-L-serin]
inhibition at 5 µM: 10%
inhibition at 10 µM: 36%
inhibition at 20 µM: 74%
inhibition at 100 µM: 100%
